According to ChEMBL document CHEMBL1201862, “PubChem BioAssay data set” (2004):
Calls of active or inactive are those of the source.

Assays:
[1] = Shn3 3'UTR reporter inhibitors, dose response, cell-based, Clone20 osteoblasts, firefly luciferase, cherry-picked (AID 624132); assay type: functional;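 note: firefly luciferase luminescence from reporter carrying the Shn3 3'UTR in osteoblasts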
[2] = HepG2 cell cytotoxicity, dose response, cytotoxicity control for Shn3 inhibitor project, CellTiter-Glo, cherry-picked (AID 624134); assay type: functional, cell-based
[3] = control 3'UTR Renilla luciferase suppression, dose response, counter-screen for Shn3 inhibitor project, cell-based, Clone20-Shn3RL, cherry-picked (AID 624133); assay type: functional
[4] = Luminescence Cell-Based Dose Confirmation HTS to Identify Inhibitors of Platelet Dense Granule Release. [Related pubchem assays: 1663 (Primary HTS), 1678 (Summary of Project)]; assay type: functional
[5] = molecular target: Luciferin 4-monooxygenase (Photinus pyralis, UniProt P08659); assay: firefly luciferase enzyme inhibitors, dose response, biochemical, luminescence (AID 1891)
Sequence of Luciferin 4-monooxygenase (P08659 whole entry, the tested form may be a part): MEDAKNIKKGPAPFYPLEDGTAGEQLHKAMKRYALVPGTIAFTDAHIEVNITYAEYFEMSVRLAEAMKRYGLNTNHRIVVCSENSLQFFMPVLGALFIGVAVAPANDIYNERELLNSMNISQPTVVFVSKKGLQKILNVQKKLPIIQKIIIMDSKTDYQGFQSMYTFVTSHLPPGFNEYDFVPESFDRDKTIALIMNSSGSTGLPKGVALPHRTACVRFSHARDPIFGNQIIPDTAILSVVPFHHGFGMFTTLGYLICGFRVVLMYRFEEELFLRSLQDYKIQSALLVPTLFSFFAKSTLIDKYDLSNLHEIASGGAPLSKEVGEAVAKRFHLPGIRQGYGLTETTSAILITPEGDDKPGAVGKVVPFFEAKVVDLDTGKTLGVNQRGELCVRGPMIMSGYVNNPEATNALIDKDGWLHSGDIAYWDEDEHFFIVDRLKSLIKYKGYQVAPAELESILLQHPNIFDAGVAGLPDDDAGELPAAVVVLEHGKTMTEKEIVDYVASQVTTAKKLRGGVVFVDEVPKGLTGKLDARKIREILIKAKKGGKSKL

[6] = molecular target: T1, RNA-binding protein pos-1 (Caenorhabditis elegans, UniProt G5EF15); assay: inhibitors of POS-1/mex-3 RNA binding, dose response, biochemical, fluorescence polarization (AID 1964);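 note: purified POS-1 fused to maltose binding protein made in E. coli; potency of compounds blocking POS-1 binding to fluorescent RNA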
T1 sequence (G5EF15 whole entry): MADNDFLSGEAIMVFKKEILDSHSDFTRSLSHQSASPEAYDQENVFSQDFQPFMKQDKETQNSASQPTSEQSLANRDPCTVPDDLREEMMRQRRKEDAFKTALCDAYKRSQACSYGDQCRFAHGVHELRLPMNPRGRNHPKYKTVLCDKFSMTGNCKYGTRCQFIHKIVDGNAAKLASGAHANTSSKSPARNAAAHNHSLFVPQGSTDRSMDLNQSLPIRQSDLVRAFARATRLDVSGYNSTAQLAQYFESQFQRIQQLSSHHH

[7] = cells; assay type: functional, cell-based
[8] = cells; assay type: functional, cell-based; remark: listed apart in the source
[9] = growth suppression of PTEN-null colon cells, dose response, cell-based, HCT116 PTEN knockout (AID 1047); assay type: functional;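 note: HCT116 colon tumor cells with PTEN knocked out; cells exposed to compound for 60 hours before readout; potency for loss of cell viability measured by luminescence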
[10] = growth suppression of beta-catenin-knockout colon cells, dose response, cell-based, HCT116, human colon tumor (AID 1045); assay type: functional;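 note: HCT116 colon tumor cells with beta catenin knocked out; cells exposed to compound for 60 hours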
[11] = molecular target: T2, Protein skinhead-1 (Caenorhabditis elegans, UniProt P34707); assay type: functional
T2 sequence (P34707 whole entry): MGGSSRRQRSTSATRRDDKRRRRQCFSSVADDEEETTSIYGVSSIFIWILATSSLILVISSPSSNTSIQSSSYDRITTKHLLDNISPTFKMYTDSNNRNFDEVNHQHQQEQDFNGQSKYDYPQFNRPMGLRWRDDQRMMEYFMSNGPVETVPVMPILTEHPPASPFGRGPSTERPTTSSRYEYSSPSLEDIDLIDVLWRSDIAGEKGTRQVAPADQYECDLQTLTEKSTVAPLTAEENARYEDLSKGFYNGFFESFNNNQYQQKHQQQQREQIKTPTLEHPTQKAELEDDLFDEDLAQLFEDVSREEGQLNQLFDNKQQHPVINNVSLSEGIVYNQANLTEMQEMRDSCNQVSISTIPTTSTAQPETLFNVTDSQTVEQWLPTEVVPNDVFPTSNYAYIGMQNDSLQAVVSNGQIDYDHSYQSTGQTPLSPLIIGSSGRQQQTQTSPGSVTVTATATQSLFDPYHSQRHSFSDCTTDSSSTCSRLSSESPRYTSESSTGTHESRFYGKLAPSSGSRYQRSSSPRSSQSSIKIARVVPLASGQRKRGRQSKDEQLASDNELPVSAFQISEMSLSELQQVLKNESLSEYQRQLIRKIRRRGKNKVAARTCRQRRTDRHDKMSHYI

[12] = molecular target: Cytochrome P450 2C9 (Homo sapiens, UniProt P11712)
Sequence of Cytochrome P450 2C9 (P11712 whole entry): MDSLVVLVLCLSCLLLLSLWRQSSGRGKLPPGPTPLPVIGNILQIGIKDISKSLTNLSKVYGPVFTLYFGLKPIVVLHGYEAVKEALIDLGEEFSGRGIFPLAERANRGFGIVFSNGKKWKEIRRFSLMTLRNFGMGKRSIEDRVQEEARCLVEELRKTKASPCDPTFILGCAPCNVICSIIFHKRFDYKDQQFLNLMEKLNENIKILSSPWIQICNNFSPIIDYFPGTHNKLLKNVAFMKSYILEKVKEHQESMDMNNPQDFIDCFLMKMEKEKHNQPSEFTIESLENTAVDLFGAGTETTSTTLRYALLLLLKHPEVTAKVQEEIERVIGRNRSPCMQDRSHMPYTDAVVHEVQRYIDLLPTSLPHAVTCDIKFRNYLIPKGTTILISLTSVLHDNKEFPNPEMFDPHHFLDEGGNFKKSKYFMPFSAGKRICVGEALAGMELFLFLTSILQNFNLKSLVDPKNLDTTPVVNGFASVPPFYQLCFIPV

[13] = molecular target: T3, Calpain-2 catalytic subunit (Sus scrofa, UniProt P43367); assay: pig calpain II inhibitor potency, dose response, biochemical, fluorogenic peptide substrate (AID 1420); assay type: functional
T3 sequence (P43367 whole entry): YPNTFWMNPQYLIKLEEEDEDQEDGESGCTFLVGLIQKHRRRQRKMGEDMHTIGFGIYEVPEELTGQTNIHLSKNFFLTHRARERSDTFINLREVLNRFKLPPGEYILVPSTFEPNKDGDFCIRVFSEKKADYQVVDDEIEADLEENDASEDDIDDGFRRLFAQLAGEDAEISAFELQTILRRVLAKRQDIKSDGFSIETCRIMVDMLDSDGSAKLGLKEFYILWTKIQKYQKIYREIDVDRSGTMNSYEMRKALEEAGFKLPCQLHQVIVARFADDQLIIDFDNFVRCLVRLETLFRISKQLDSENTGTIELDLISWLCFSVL

[14] = molecular target: T4, Cytochrome P450 1A2 (Homo sapiens, UniProt P05177);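 note: PubChem cytochrome P450 panel assay, CYP1A2 panel member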
T4 sequence (P05177 whole entry): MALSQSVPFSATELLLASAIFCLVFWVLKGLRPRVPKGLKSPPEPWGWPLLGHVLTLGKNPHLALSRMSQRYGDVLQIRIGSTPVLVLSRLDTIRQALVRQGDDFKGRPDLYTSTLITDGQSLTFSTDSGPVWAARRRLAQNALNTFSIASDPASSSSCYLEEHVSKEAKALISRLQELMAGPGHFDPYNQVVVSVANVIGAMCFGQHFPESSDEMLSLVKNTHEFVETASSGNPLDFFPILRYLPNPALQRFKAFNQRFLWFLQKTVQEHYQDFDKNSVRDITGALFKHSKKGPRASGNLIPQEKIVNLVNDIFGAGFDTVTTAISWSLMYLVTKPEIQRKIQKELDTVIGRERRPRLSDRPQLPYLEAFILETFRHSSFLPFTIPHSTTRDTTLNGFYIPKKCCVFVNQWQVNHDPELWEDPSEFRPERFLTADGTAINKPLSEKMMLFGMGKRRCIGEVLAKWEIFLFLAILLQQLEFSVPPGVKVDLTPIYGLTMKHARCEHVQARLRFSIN

[15] = inhibitors of HIV Env-driven cell fusion, dose response, cherry-pick (AID 652057); assay type: functional, cell-based
[16] = inhibitors of clade B AD8 Env fusion, dose response, cell-based, cherry-pick (AID 652062); assay type: functional;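 note: luciferase signal from cell-cell fusion driven by HIV-1 clade B AD8 Env; potency is for inhibitors of fusion seen as a drop in luminescence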
[17] = inhibitors of intracellular T. cruzi replication, confirmation, NIH3T3 host cells, beta-gal luminescence (AID 2044); assay type: functional, cell-based;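 note: intracellular parasites grown in NIH/3T3 mouse fibroblasts as host cells; luminescent beta-galactosidase reporter signal from transgenic T. cruzi replicating inside host cells; inhibitors lower the luminescence signal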
[18] = cytotoxicity toward NIH3T3 fibroblasts, dose response, counter-screen, cell-based, ATP luminescence, mouse fibroblasts (AID 2010); assay type: functional;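 note: cells exposed to compound for about 90 hours before reading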
[19] = molecular target: T5, Heat shock factor protein 1 (Mus musculus, UniProt P38532); assay: inhibition of MG132-induced HSE-luciferase signal, confirmation, cell-based, NIH3T3, luminescence, dose retest (AID 2382); assay type: functional;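 note: NIH3T3 fibroblasts with HSF1-driven luciferase reporter stressed by proteasome inhibitor MG132; luminescence from HSF1-driven luciferase expression after 8 hours of MG132 stress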
T5 sequence (P38532 whole entry): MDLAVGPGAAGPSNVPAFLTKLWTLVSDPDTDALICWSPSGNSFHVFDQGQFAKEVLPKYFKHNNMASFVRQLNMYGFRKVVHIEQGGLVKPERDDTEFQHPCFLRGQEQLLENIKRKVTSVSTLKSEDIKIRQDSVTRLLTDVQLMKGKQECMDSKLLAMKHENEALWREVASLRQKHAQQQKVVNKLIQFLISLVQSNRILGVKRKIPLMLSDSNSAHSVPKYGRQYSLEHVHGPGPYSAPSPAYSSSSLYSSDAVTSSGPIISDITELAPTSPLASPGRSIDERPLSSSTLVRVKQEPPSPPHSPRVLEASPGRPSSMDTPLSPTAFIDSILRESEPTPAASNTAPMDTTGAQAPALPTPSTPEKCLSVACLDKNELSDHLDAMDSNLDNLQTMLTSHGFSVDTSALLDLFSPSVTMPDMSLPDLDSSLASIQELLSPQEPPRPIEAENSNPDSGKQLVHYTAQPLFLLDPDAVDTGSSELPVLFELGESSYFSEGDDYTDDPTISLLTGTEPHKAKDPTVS

[20] = molecular target: Cytochrome P450 3A4 (Homo sapiens, UniProt P08684);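 note: CYP3A4 tested as one member of a cytochrome P450 panel screen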
Sequence of Cytochrome P450 3A4 (P08684 whole entry): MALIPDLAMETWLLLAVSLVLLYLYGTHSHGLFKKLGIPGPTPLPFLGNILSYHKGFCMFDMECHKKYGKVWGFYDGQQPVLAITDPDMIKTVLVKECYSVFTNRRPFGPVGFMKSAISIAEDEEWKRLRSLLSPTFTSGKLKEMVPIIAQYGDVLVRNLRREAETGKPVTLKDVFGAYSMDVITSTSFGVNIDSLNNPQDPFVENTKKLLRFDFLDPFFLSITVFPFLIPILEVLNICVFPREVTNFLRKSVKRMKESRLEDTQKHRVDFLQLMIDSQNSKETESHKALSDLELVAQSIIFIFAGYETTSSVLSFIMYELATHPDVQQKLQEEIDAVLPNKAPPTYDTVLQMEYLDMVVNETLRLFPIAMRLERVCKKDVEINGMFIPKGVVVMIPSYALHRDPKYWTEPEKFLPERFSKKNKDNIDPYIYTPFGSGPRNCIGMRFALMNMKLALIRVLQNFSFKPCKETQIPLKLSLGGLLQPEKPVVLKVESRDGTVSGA

[21] = molecular target: Cytochrome P450 2C19 (Homo sapiens, UniProt P33261); assay: Cytochrome panel assay with activity outcomes. Panel member name: p450-cyp2c19 Compounds with AC50 equal or less than 10 uM are considered active; assay type: functional; settings: read-out: AC50
Sequence of Cytochrome P450 2C19 (P33261 whole entry): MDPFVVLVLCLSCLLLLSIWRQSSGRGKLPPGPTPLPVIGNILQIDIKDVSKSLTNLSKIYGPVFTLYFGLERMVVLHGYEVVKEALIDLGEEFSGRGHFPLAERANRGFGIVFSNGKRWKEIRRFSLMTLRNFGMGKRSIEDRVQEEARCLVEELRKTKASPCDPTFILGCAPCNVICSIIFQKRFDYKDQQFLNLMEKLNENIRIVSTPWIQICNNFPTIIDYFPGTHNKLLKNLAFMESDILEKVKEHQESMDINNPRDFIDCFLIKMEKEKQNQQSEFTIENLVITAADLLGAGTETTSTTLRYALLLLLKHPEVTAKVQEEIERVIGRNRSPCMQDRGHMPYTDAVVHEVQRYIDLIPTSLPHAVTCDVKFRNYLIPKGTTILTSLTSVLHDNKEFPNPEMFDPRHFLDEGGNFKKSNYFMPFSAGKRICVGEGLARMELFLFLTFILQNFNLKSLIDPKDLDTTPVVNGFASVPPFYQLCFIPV

SMILES: CC(=O)Nc1cccc(NC(=O)CSc2ncc(-c3ccc(Cl)cc3)n2Cc2ccco2)c1
- AC50 [1]: 4.95 µM (active)
- AC50 [2]: 60.2 µM (active)
- AC50 [3]: 10.7 µM (active)

SMILES: CCCCOc1cccc(-c2cc(C(=O)NN=C(S)NCC)c3ccccc3n2)c1
- EC50 [4]: 111 µM (active)

SMILES: CCCCOc1cccc(-c2cc(C(=O)NNC(=S)NCC)c3ccccc3n2)c1
- EC50 [5]: 2.3 µM (active)

SMILES: O=C(O)COc1ccc(/C=C/c2n[nH]c(-c3ccccc3O)n2)cc1
- EC50 [6]: > 300 µM (not active)

SMILES: COc1ccc(CC(=O)Nc2cccc(-c3nnc(-c4ccccc4)o3)c2)cc1OC
- EC50 [7]: > 350 µM (not active)
- EC50 [8]: > 350 µM (not active)
- EC50 [9]: 25.4 µM (active)
- EC50 [10]: 69.6 µM (active)

SMILES: CCC(=O)N1CCN(c2nc3ccc(Br)cc3s2)CC1
- EC50 [7]: > 350 µM (not active)
- EC50 [8]: 144 µM (active)
- IC50 [11]: 58.6 µM (inactive)

SMILES: O=C(NCc1cccc(Cl)c1)c1cc(COc2ccc3ncccc3c2)on1
- AC50 [1]: 3.05 µM (active)
- AC50 [2]: 38.7 µM (active)
- AC50 [3]: 14.8 µM (active)

SMILES: CCn1ccnc1C(O)c1ccccc1OC (stereo unspecified)
- EC50 [7]: > 350 µM (not active)
- EC50 [8]: > 350 µM (not active)

SMILES: Cc1ccc(C(=O)CCC(=O)Nc2cccc(C(F)(F)F)c2)cc1
- EC50 [5]: > 112 µM (not active)
- EC50 [4]: > 112 µM (not active)

SMILES: Cc1ccc(CNC(=O)CCNS(=O)(=O)c2ccc3c(c2)c(=O)n(C)c(=O)n3C)cc1
- AC50 [12]: inconclusive

SMILES: O=C(COc1cccc2cccnc12)NNC(=O)Nc1ccccc1
- IC50 [13]: < 0.4 µM (not active)

SMILES: COC(=O)CN(c1ccccn1)S(=O)(=O)c1ccccc1
- AC50 [14]: 25.1 µM (inconclusive)
- AC50 [12]: inconclusive

SMILES: Cc1ccc2c(c1)C(CCN)C(=O)N2Cc1ccccc1 (stereo unspecified)
- EC50 [5]: > 112 µM (not active)
- EC50 [4]: > 112 µM (not active)

SMILES: Cc1cc2ncn(S(=O)(=O)N3CCCCC3)c2cc1C
- AC50 [15]: 5.54 µM (active)
- AC50 [16]: 60.6 µM (active)

SMILES: c1c2c(cc3sc(N4CCOCC4)nc13)OCCO2
- EC50 [5]: 11.4 µM (active)
- EC50 [4]: 3.56 µM (active)

SMILES: O=S(=O)(Cc1ccccc1)NCC1CCCN(Cc2ccc(F)c(F)c2)C1 (stereo unspecified)
- EC50 [17]: 0.199 µM (active)
- IC50 [13]: 17.6 µM (not active)
- EC50 [18]: > 60 µM (not active)

SMILES: CNc1nc(C)cc(C)c1S(=O)(=O)c1ccc(C)cc1
- AC50 [12]: inconclusive

SMILES: COC(=O)CN1C(=O)[C@H]2[C@@H](c3ccc(C)o3)N3C(=O)CN(CC4CC4)C(=O)[C@@]3(Cc3ccccc3)[C@H]2C1=O
- EC50 [7]: > 350 µM (not active)
- EC50 [8]: > 350 µM (not active)

SMILES: COc1cccc(CN(C)CC(=O)Nc2cccc(C(F)(F)F)c2)c1OC
- EC50 [19]: > 195 µM (not active)
- IC50 [13]: 3.87 µM (not active)

SMILES: C=CCOC(=O)C(C#N)c1nc2ccccc2nc1N1CCN(Cc2ccc3c(c2)OCO3)CC1 (stereo unspecified)
- EC50 [5]: 69.2 µM (active)
- EC50 [4]: > 112 µM (not active)
- EC50 [17]: 1.18 µM (active)
- EC50 [18]: > 60 µM (not active)

SMILES: Cc1cccc(Cn2c(NCCO)nc3c2c(=O)n(C)c(=O)n3C)c1
- AC50 [1]: 0.528 µM (active)
- AC50 [2]: 2.83 µM (active)
- AC50 [3]: 2.12 µM (active)

SMILES: CC1=CC2=NC(=O)/C(=C\c3cccn3CCOc3cc(C)cc(C)c3)C(=N)N2O1
- IC50 [13]: 0.668 µM (not active)

SMILES: COc1ccc(C(=O)CSc2nc(C(C)(C)C)nc3ccccc23)cc1
- IC50 [13]: 12.6 µM (not active)

SMILES: O=C(NNC(=O)C1CCN(S(=O)(=O)c2ccc(Cl)cc2)CC1)c1ccc(Cl)cc1
- AC50 [20]: 3.55 µM (inconclusive)
- AC50 [12]: inconclusive

SMILES: O=S(=O)(c1ccccc1)N1CCCCC1c1cccnc1 (stereo unspecified)
- AC50 [12]: inconclusive

SMILES: CCCN(CCC)CCCNS(=O)(=O)c1cc(Br)cc2c1N(C(C)=O)CC2
- AC50 [21]: 31.6 µM (inconclusive)
- AC50 [12]: inconclusive

SMILES: C[C@H](CO)N1C[C@H](C)[C@H](CN(C)S(=O)(=O)c2ccccc2)Oc2ccc(NC(=O)Cc3ccccc3)cc2CC1=O
- AC50 [15]: < 0.26 µM (active)
- AC50 [16]: < 0.26 µM (active)

SMILES: Cc1[nH]c2ccccc2c1/C=N/NC(=S)NCc1ccccc1
- IC50 [13]: 15.1 µM (not active)

SMILES: O=C(O/N=C\c1ccc(N2CCCCC2)c([N+](=O)[O-])c1)c1c(F)cccc1F
- AC50 [21]: 11.2 µM (inconclusive)
- AC50 [20]: 12.6 µM (inconclusive)
- AC50 [12]: inconclusive

SMILES: COc1cc(N/N=C/c2ccc(N(C)C)cc2)ncn1
- EC50 [5]: 2.9 µM (active)
- EC50 [4]: 0.989 µM (active)

SMILES: CC(=O)Nc1ccc(S(=O)(=O)c2ccc(N)cc2)cc1 [MONO-N-ACETYL DAPSONE]
- AC50 [12]: inconclusive
